According to PubChem BioAssay AID248 (DTP/NCI, 2004):
Toxic doses and inconclusive results are not listed. Cut-off read from the data, not from the text of the source: active = T/C of 150% or more; inactive = T/C below 125%.

Tested on: L1210 leukemia ip in BDF1 mice, survival T/C
Test: NCI In Vivo Anticancer Drug Screen. Data for tumor model L1210 Leukemia (intraperitoneal) in B6D2F1 (BDF1) mice
Conditions: endpoint: mean survival time, higher = longer survival
Outline: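 Each compound was tested against a transplantable tumor grown in mice. The endpoint was survival, with treated animals benchmarked against vehicle controls as a simple ratio.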

[1] = dose: 100.0 mg/kg/injection, schedule: Q01DX009 (ip), vehicle: Klucel (hydroxypropylcellulose) (HPC)
[2] = dose: 200.0 mg/kg/injection, schedule: Q01DX009 (ip), vehicle: Klucel (hydroxypropylcellulose) (HPC)
[3] = dose: 100.0 mg/kg/injection, schedule: Q04DX003 (ip), vehicle: Klucel (hydroxypropylcellulose) (HPC)
[4] = dose: 200.0 mg/kg/injection, schedule: Q04DX003 (ip), vehicle: Klucel (hydroxypropylcellulose) (HPC)
[5] = dose: 400.0 mg/kg/injection, schedule: Q01DX009 (ip), vehicle: Klucel (hydroxypropylcellulose) (HPC)
[6] = dose: 400.0 mg/kg/injection, schedule: Q04DX003 (ip), vehicle: Klucel (hydroxypropylcellulose) (HPC)

Measured: T/C

S=C(Nc1ccccc1)Nc1ccc(NC(=S)Nc2ccccc2)cc1
inactive: dose: 100.0 mg/kg/injection, schedule: Q01DX001 (ip), vehicle: saline with Tween-80 96 % of control | dose: 200.0 mg/kg/injection, schedule: Q01DX001 (ip), vehicle: saline with Tween-80 92 % of control

O=C(N/C=C/NC(=O)NCc1ccco1)NCc1ccco1
inactive: [1] 97 % of control | [2] 87 % of control

O=c1[nH][nH]c(=O)c2nc3ccccc3nc12
inactive: [1] 97 % of control | [3] 94 % of control | [2] 100 % of control | [4] 97 % of control | [5] 93 % of control | [6] 92 % of control

N#CC1CC2([N+](=O)[O-])c3ccccc3C1c1ccccc12 (centres undefined)
inactive: [1] 96 % of control | [3] 105 % of control | dose: 100.0 mg/kg/injection, schedule: Q04DX003 (ip), vehicle: saline 105 % of control | [2] 102 % of control | [4] 108 % of control | dose: 200.0 mg/kg/injection, schedule: Q04DX003 (ip), vehicle: saline 108 % of control | [5] 94 % of control | [6] 102 % of control | dose: 400.0 mg/kg/injection, schedule: Q04DX003 (ip), vehicle: saline 102 % of control
